From patent publication US5733908A, “Tetracyclic 1,4-oxazine compounds” (Adir Et Compagnie, priority 1995, dated 1998)

Tested on: male Wistar rats, hypothermia induced by the D3 dopaminergic agonist 7-OH-DPAT
Experiment: Hypothermia in the rat induced by the D3 agonist 7-OH-DPAT (reversal test)
Assay type: in vivo
Settings: for ΔT°C. (rectal temperature vs base values): measured 30 min after, mean ± sem, n ≥ 5
Text: That selectivity makes the compounds of the present invention valuable especially for use as medicaments that act on the dopaminergic system without causing the undesirable effects of D2 ligands.
In vivo: by the capacity of the products of the invention to modulate hypothermia induced in the rat by the D3 dopaminergic agonist: 7-OH-DPAT.
1.2 In vivo - Hypothermia in the rat
The tests were carded out on male Wistar rats weighing 200-250 g placed in individual cages with free access to food and water. The products were dissolved in distilled water to which several drops of lactic acid are added. The injections were effected in a volume of 1.0 ml/kg by the subcutaneous route. The doses are expressed in terms of the base. The rectal temperature of the rats was recorded using a digital thermistoprobe (Millan et al, I.P.E.T., 1993, 264, p. 1364-1376). During a first period, the rats were injected with the compound to be tested or the carrier, and were then put back in their cages for 30 minutes. The rats were then given an injection of 7-OH-DPAT (0.16 mg/kg) and were placed in their cages again. Thirty minutes later, the rectal temperature was measured and the difference was determined by comparison with the base values (.increment.T° C.). The inhibitory dose (95 % confidence limits) for reducing the effect of the 7-OH-DPAT by 50 % was calculated according to the Finney method (Statistical Method in Biological Assays, 2nd ed., Hafner Publishing, New York, 1964).

| SMILES | ΔT°C. (rectal temperature vs base values) (injection 1: carrier, injection 2: 7-OH-DPAT 0.16 mg/kg s.c.) | ED50 (Rattus norvegicus, sc, 7-OH-DPAT 0.16 mg/kg, Finney method, 95 % confidence limits in brackets, read-out: inhibitory dose (ID50) (95 % C.L.) for reducing the effect of 7-OH-DPAT by 50 %) | ΔT°C. (rectal temperature vs base values) (injection 1: product 0.16 mg/kg s.c., injection 2: 7-OH-DPAT 0.16 mg/kg 30 min later) |
| --- | --- | --- | --- |
| CCCN(CCC)C1CCc2ccc(O)cc2C1 (stereo not drawn) [Example 7-OH-DPAT, reference compound] | -1.66 ± 0.07 °C |  |  |
| CCCN1CCO[C@@H]2c3cc4c(cc3CC[C@H]21)CCS4 (relative stereo) [Example 2, Trans-3,4,4a,5,6,8,9,11b-octahydrothieno[2,3-b]-1,4-oxazino[3,2-h]-4-propyl-2H-naphthalene] |  | 0.41 mg/kg | -1.48 ± 0.44 °C |
